Measurements reported in patent US20110038855A1, “TRAIL AND METHODS OF MODULATING T CELL ACTIVITY AND ADAPTIVE IMMUNE RESPONSES USING TRAIL” (priority 2005, published 2011).
Peptide text beside a SMILES is read from it. * marks the point of attachment. Cbz = O=C(OCc1ccccc1)*; CH2F = FC*

B1: recombinant TRAIL (protein)
chain: PRGGRPQKVAAHITGITRRSNSALIPISKDGKTLGQKIESWESSRKGHSFLNHVLFRNGELVIEQEGLYYIYSQTYFRFQEAEDASKMVSKDKVRTKQLVQYIYKYTSYPDPIVLMKSARNSCWSRDAEYGLYSIYQGGLFELKKNDRIFVSVTNEHLMDLDQEASFFGAFLIN

Tests used:
[1] = system: E1B192-200-specific CD8+ T cells; assay type: cell-based, mouse; conditions: for secondary expansion of purified helpless CD8+ T cells (fold expansion of IFN-γ-producing E1B192-200-specific CD8+ T cells): caspase inhibitors 20 μM, 6 days after in vitro restimulation, CD4-depleted mice, FIGS. 1a, 1b
[2] = system: GP33-41-specific CD8+ T cells; assay type: cell-based, mouse; conditions: 6 days

Molecule	secondary expansion of purified helpless CD8+ T cells (fold expansion of IFN-γ-producing E1B192-200-specific CD8+ T cells) [1]	secondary expansion of helpless LCMV-specific CD8+ T cells [2]	secondary expansion of helpless CD8+ T cells from TRAIL-deficient mice in presence of exogenous TRAIL ([1]; CD4-depleted TRAIL-/- mice, 6 days, FIG. 4b)	secondary expansion of helped CD8+ T cells in presence of exogenous TRAIL ([1]; intact wild type mice, 6 days, FIG. 4a)
CC(C)C(NC(=O)c1ccc2ccccc2n1)C(=O)NC(CC(=O)O)C(=O)COc1c(F)cccc1F (stereo not drawn) [qVD-OPh, quinoline-Val-Asp-CH2-difluorophenoxy]	restored secondary expansion			
COC(=O)C[C@H](NC(=O)[C@H](C)NC(=O)[C@@H](NC(=O)OCc1ccccc1)C(C)C)C(=O)CF [zVAD-fmk, benzyloxycarbonyl-Val-Ala-Asp-fluoromethyl ketone] (Cbz-Val-Ala-Asp(OMe)-CH2F)	restored secondary expansion	restored		
B1			failed to do so	completely inhibited secondary expansion
